Laboratory results taken from PMC5508670, “Conformationally restricted calpain inhibitors” (Chemical Science, 2015).
Like-named read-outs stand apart in the source and are kept apart here.

Key:
Calpain-I [1] = target: Calpain-I; set-up: method as in PMID 8692879; conditions: cited from earlier work
Calpain-II = target: Calpain-II; set-up: method as in PMID 8692879; conditions: cited from earlier work
calpain-I [2] = target: T1, calpain-I (Sus scrofa, UniProt P35750); assay: FRET-based calpain-I inhibition assay in the presence and absence of 10 mM DTT; type: biochemical, porcine
T1 construct: purchased CalBiochem
T1 sequence (P35750 1-714): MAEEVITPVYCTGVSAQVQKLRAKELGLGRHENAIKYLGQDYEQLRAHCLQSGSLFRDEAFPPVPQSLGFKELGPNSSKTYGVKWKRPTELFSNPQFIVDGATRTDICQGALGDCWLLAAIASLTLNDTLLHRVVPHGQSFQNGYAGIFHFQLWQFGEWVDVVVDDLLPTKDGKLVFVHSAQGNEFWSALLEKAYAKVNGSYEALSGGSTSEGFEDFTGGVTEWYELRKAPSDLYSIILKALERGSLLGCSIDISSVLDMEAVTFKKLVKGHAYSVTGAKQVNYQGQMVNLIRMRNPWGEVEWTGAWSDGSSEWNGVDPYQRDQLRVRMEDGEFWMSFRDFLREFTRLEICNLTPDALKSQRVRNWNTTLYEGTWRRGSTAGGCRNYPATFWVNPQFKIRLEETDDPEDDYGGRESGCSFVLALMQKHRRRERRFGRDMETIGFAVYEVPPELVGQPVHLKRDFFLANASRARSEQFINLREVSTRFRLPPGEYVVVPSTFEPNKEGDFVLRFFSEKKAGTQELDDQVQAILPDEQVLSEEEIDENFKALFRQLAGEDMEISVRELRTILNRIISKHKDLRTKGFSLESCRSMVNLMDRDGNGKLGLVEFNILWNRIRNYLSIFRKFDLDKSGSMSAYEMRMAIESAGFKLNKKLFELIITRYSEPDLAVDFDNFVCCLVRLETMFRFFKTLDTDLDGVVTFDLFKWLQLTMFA
T1 sequence (P04574 1-266): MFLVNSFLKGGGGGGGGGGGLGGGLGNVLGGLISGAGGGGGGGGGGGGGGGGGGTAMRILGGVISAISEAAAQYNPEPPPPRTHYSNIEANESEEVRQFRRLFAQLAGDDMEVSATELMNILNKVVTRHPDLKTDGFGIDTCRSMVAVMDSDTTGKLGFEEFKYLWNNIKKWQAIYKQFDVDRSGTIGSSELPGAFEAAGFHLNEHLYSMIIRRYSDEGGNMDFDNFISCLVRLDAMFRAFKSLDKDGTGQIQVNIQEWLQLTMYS
Method: The inhibitory properties of a series of oxidised and reduced α-mercaptoacrylic acid derivatives towards calpain-I (Fig. 4) were assessed in a FRET-based assay in the presence and absence of 10 mM dithiothreitol (DTT).[24],[25] To ensure complete oxidation, compounds were left in the assay solution for 3 hours prior to performing the assay (vide supra and ESI ^†). In the absence of inhibitors there was no observable difference in enzyme activity when assayed under both oxidising and reducing conditions.
Protein Expression, Crystallisation and FRET Based Inhibition Assay Methods […]
FRET based Inhibition Assay
This assay employed a peptide from the calpain-1 substrate α-spectrin, with fluorescein at one terminus internally quenched by DABCYL and the other (H2N-K(FAM)-EVYGMMK(DABCYL)-OH).11 Cleavage by calpain-1 occurs between the Tyr-Gly residues and results in enhanced fluorescence as the quenching effect is relieved. The assays were performed using purified porcine Calpain-1 (CalBiochem, 10 nM) and fluorogenic calpain-1 substrate (Merck, 1 µM) in an assay buffer consisting of HEPES (10 mM) pH 6.8; EDTA (0.5 mM); bovine serum albumin (0.1%). The assay was performed using a fluorescent plate reader (BMG Optistar) in an assay volume of 100 µl at a temperature of 37°C, using an excitation band pass filter centred at 485 nm and emission detected at 520 nm. The compounds to be tested for inhibition were added to the assay mixture before the reaction was initated by the addition of CaCl2 (5 mM).
None of the compounds had significant fluorescence at this wavelength and correction for this was unnecessary. The compounds were dissolved in DMSO at 50 mM and diluted into assay buffer to give range of concentrations from 5 nM to 50 µM. In each assay run, the effect of DMSO alone over the concentration used was also measured. Although there was no effect of DM SO at lower concentrations, in some assay runs, DM SO at 0.005%-0.5% produced some inhibitory effect. This DM SO effect (which was only relevant for compounds with poor inhibitory ability) was subtracted before constructing the inhibition curves.
FRET based inhibition assay (DTT addition)
The same procedure was used as described above except with assay buffer containing HEPES (10 mM) pH 6.8; EDTA (0.5 mM); bovine serum albumin (0.1%) and DTT (10 mM).

[3] = Oxidation of sulfhydryl to disulfide in solution (UV-VIS / 1H-NMR); type: physicochemical
Method: The rate of conversion of 3 to its disulfide form was dependent upon both the concentration of the compound and the nature of the solution. […] […] Compound 4 was then added to preformed crystals of PEF(S).

[4] = presence of 10 mM DTT (reduced sulfhydryl form), read-out: IC50, Sulfhydryl
[5] = absence of DTT (oxidised disulfide form), compounds left 3 hours in assay solution before the assay, read-out: IC50, Disulfide
[6] = absence of DTT (disulfide form), read-out: IC50 of oxidised compounds
[7] = thioethers, 10 mM DTT, read-out: IC50 (DTT)
[8] = thioethers, no DTT, read-out: IC50 (No DTT)
[9] = thioethers, DTT had no effect on the potency, read-out: IC50

Row | Compound | IC50 (calpain-I [2]; [4]) [nM] | IC50 (calpain-I [2]; [5]) [nM] | also measured
1 | O=C(O)/C(S)=C/c1ccc(I)cc1 [PD150606] | – | – | Ki (Calpain-I [1]): 210 nM; Ki (Calpain-II): 370 nM
2 | O=C(O)/C(S)=C/c1c[nH]c2ccc(F)cc12 [PD151746] | – | – | Ki (Calpain-I [1]): 260 nM; Ki (Calpain-II): 5330 nM
3 | O=C(O)/C(=C/c1c[nH]c2cc(Br)ccc12)SS/C(=C\c1c[nH]c2cc(Br)ccc12)C(=O)O [compound 4, (2Z,2′Z)-2,2′-disulfanediylbis(3-(6-bromoindol-3-yl)acrylic acid)] | – | – | IC50 (calpain-I [2]; disulfide prepared by iodine mediated oxidation and in situ prior to the assay, read-out: IC50 (dose response curve, Figure S8)): 200 nM
4 | O=C(O)/C(=C/c1ccccc1F)SS/C(=C\c1ccccc1F)C(=O)O [compound 6] | – | 65 | –
5 | O=C(O)/C(=C/c1ccccc1Br)SS/C(=C\c1ccccc1Br)C(=O)O [compound 10] | – | 250 | –
6 | O=C(O)/C(=C/c1cccc(I)c1)SS/C(=C\c1cccc(I)c1)C(=O)O [compound 17] | – | – | IC50 (calpain-I [2]; [6]): 25 nM
7 | O=C(O)/C(=C/c1ccc(F)cc1)SS/C(=C\c1ccc(F)cc1)C(=O)O [compound 19] | – | 50 | –
8 | O=C(O)/C(=C/c1ccc(Cl)cc1)SS/C(=C\c1ccc(Cl)cc1)C(=O)O [compound 21] | – | 10 | –
9 | O=C(O)/C(=C/c1ccc(I)cc1)SS/C(=C\c1ccc(I)cc1)C(=O)O [compound 23] | – | – | IC50 (calpain-I [2]; [6]): 7.5 nM
10 | O=C(O)/C(=C/c1c[nH]c2ccc(Cl)cc12)SS/C(=C\c1c[nH]c2ccc(Cl)cc12)C(=O)O [compound 25] | – | 18 | –
11 | O=C(O)/C(=C/c1c[nH]c2ccc(Br)cc12)SS/C(=C\c1c[nH]c2ccc(Br)cc12)C(=O)O [compound 27] | – | 10 | –
12 | O=C(O)/C(=C/c1c[nH]c2ccc(I)cc12)SS/C(=C\c1c[nH]c2ccc(I)cc12)C(=O)O [compound 29] | – | 15 | –
13 | O=C(O)/C(=C/c1c[nH]c2cc(Cl)ccc12)SS/C(=C\c1c[nH]c2cc(Cl)ccc12)C(=O)O [compound 31] | – | 28 | –
14 | O=C(O)/C(=C/c1c[nH]c2cc(I)ccc12)SS/C(=C\c1c[nH]c2cc(I)ccc12)C(=O)O [compound 35] | – | 10 | –
15 | O=C(O)/C(=C/c1c[nH]c2c(I)cccc12)SS/C(=C\c1c[nH]c2c(I)cccc12)C(=O)O [compound 39] | – | 20 | –
16 | O=C(O)/C(=C/c1ccc(Br)cc1)CS/C(=C\c1ccc(Br)cc1)C(=O)O [compound 40, (Z)-3-(4-Bromophenyl)-2-((((Z)-2-(4-bromophenyl)-1-carboxyvinyl)thio)methyl)acrylic acid] | – | – | IC50 (calpain-I [2]; [7]): 10000 nM; IC50 (calpain-I [2]; [8]): 10000 nM
17 | O=C(O)/C(=C/c1cccc(Cl)c1)CS/C(=C\c1ccc(Cl)cc1)C(=O)O [compound 41, (Z)-3-(3-chlorophenyl)-2-((((Z)-2-(4-chlorophenyl)-1-carboxyvinyl)thio)methyl)acrylic acid] | – | – | IC50 (calpain-I [2]; [7]): > 100000 nM; IC50 (calpain-I [2]; [8]): > 100000 nM; IC50 (calpain-I [2]; [9]): > 100000 nM
18 | O=C(O)/C(=C/c1cccc(Cl)c1)CS/C(=C\c1c[nH]c2ccc(Br)cc12)C(=O)O [compound 42, (Z)-3-(5-bromoindol-3-yl)-2-(((Z)-2-carboxy-3-(3-chlorophenyl)allyl)thio)acrylic acid] | – | – | IC50 (calpain-I [2]; [8]): 2000 nM; IC50 (calpain-I [2]; [9]): 1800 nM
19 | O=C(O)/C(=C/c1ccc(Br)cc1)CS/C(=C\c1c[nH]c2cc(Br)ccc12)C(=O)O [compound 43, (Z)-3-(6-bromoindol-3-yl)-2-(((Z)-3-(4-bromophenyl)-2-carboxyallyl)thio)acrylic acid] | – | – | IC50 (calpain-I [2]; [7]): 10000 nM; IC50 (calpain-I [2]; [8]): 10000 nM

The next lines start with results.

Row | IC50 (calpain-I [2]; [4]) [nM] | IC50 (calpain-I [2]; [5]) [nM] | Compound | also measured
20 | 500 | – | O=C(O)/C(S)=C/c1c[nH]c2cc(Br)ccc12 [compound 3, (Z)-3-(6-bromoindole-3-yl)-2-mercaptoacrylic acid] | time to complete conversion to oxidised (disulfide) form ([3]; 100 μM in 100 mM KiPO4, pH 7.0, room temperature, UV-VIS): 3 h; time after which oxidation was complete ([3]; 50 mM in DMSO, room temperature, 1H-NMR): 24 h
21 | 50000 | – | O=C(O)/C(S)=C/c1ccccc1F [compound 5] | –
22 | 60000 | – | O=C(O)/C(S)=C/c1ccccc1Cl [compound 7] | –
23 | 50000 | – | O=C(O)/C(S)=C/c1ccccc1Br [compound 9] | –
24 | 50000 | – | O=C(O)/C(S)=C/c1cccc(F)c1 [compound 11] | –
25 | 3000 | – | O=C(O)/C(S)=C/c1cccc(I)c1 [compound 16] | –
26 | 50000 | – | O=C(O)/C(S)=C/c1ccc(F)cc1 [compound 18] | –
27 | 1500 | – | O=C(O)/C(S)=C/c1c[nH]c2ccc(Cl)cc12 [compound 24] | –
28 | 500 | – | O=C(O)/C(S)=C/c1c[nH]c2ccc(Br)cc12 [compound 26] | –
29 | 500 | – | O=C(O)/C(S)=C/c1c[nH]c2ccc(I)cc12 [compound 28] | –
30 | 1000 | – | O=C(O)/C(S)=C/c1c[nH]c2cc(Cl)ccc12 [compound 30] | –
31 | 500 | – | O=C(O)/C(S)=C/c1c[nH]c2cc(I)ccc12 [compound 34] | –
32 | 4000 | – | O=C(O)/C(S)=C/c1c[nH]c2c(Cl)cccc12 [compound 36] | –
33 | – | 23 | O=C(O)/C(=C/c1c[nH]c2c(Cl)cccc12)SS/C(=C\c1c[nH]c2c(Cl)cccc12)C(=O)O [compound 37] | –
34 | 2000 | – | O=C(O)/C(S)=C/c1c[nH]c2c(I)cccc12 [compound 38] | –
